Laboratory results from patent US20250351818A1, “PESTICIDAL BAIT COMPOSITION AND PROCESSES RELATED THERETO” (priority 2022, published 2025).

Experiments:
[1] = tested on: phytoplasma and spiroplasma (corn stunt); assay: Corn field naturally infected, foliar kasugamycin, severity of the stunts; assay type: in vivo; conditions: 100 g ai/ha; for severity of the disease (percent of leaf area infected, visual): 1 application/week for 4 weeks
Excerpt: Another major problem is corn stunt disease. S. kunkelii, a spiroplasma often referred to as corn stunt spiroplasma and a Maize bushy stunt phytoplasma (MBSP) can both survive in the maize leafhopper (Dalbulus maidis), and it causes corn stunt disease. Foliar use of insecticides can be used to partially control Dalbulus maidis, however, the use of this method to control corn stunt disease is not very successful. kasugamycin (Ksg) is an aminoglycoside antibiotic. However, we have discovered that mixing kasugamycin with pesticides can control the Dalbulus maidis and S. kunkelii at the same time thereby helping to avoid corn stunt disease brought by the vector Dalbulus maidis. The amount of kasugamycin can vary from 20 g ai/ha to 100 g ai/ha in mixture with the insecticides when used in foliar applications, for example, spinetoram and sulfoxaflor at 18 g ai/ha+32 g ai/ha respectively, or spinetoram and methomyl at 18 g ai/ha and 220 g ai/ha, respectively. However, with the bait composition the amount of kasugamycin to use in the pesticidal bait compositions, based on the total weight of a pesticidal bait composition, is from about 2.0 weight percent to about 0.01 weight percent, preferably from about 1.0 weight percent to about 0.1 weight percent, and even more preferably from about 0.5 weight percent to about 0.25 weight percent. Of course, the kasugamycin weight percent will vary depending on various factors such as, local environmental conditions and pest control effects desired, among other factors.
A corn field with plants naturally infected by both phytoplasma and spiroplasma was sprayed with kasugamycin at 100 g ai/ha. The plants with 4 true-leaves were sprayed with 1 application/week for 4 weeks. Fifteen days after the first application and 15 days after the fourth spraying the severity of the stunts were evaluated visually, considering the percent of leaf area infected (showing symptoms). […]

[2] = tested on: stunts (corn stunt disease); assay: Field corn, four foliar applications of pesticides solo and in mixture with kasugamycin, incidence of stunts and yield; assay type: in vivo; conditions: four foliar applications 7 days apart from V2; 91 days after sowing
Excerpt: Another major problem is corn stunt disease. S. kunkelii, a spiroplasma often referred to as corn stunt spiroplasma and a Maize bushy stunt phytoplasma (MBSP) can both survive in the maize leafhopper (Dalbulus maidis), and it causes corn stunt disease. Foliar use of insecticides can be used to partially control Dalbulus maidis, however, the use of this method to control corn stunt disease is not very successful. kasugamycin (Ksg) is an aminoglycoside antibiotic. However, we have discovered that mixing kasugamycin with pesticides can control the Dalbulus maidis and S. kunkelii at the same time thereby helping to avoid corn stunt disease brought by the vector Dalbulus maidis. The amount of kasugamycin can vary from 20 g ai/ha to 100 g ai/ha in mixture with the insecticides when used in foliar applications, for example, spinetoram and sulfoxaflor at 18 g ai/ha+32 g ai/ha respectively, or spinetoram and methomyl at 18 g ai/ha and 220 g ai/ha, respectively. […]
Four foliar applications of pesticides solo and in mixture with kasugamycin were performed in corn plants in field starting at V2 (2 true-leaves) stage of the crop with 7 days apart. […] The incidence of plants with symptoms of stunts at 53 and 91 days after sowing and the yield were assessed. […]

`C[C@H]1O[C@H](O[C@H]2[C@H](O)[C@@H](O)[C@@H](O)[C@H](O)[C@@H]2O)[C@@H](N)C[C@@H]1NC(=N)C(=O)O` [kasugamycin] was tested, and the “severity of the disease (percent of leaf area infected, visual)” value ([1]; 15 days after the fourth application) was 43%, the “severity of the disease (percent of leaf area infected, visual)” value ([1]; fifteen days after the first application) was 27% and the “reduction of the progression of the disease vs untreated” value ([1]; 15 days after the fourth application (43% vs 54% untreated)) was 20%. The “reduction of the progression of the disease in comparison with the untreated” value [2] was 11%.
